Assay [1] has as its target T1, PIG-W (Homo sapiens, UniProt Q7Z7B1).
T1 construct: expressed in transfected cells; host or cells: S. cerevisiae BY4741-derived gwt1 deletion shuttle strain carrying a pAG415GPD-based PIG-W plasmid
T1 sequence (Q7Z7B1 1-504): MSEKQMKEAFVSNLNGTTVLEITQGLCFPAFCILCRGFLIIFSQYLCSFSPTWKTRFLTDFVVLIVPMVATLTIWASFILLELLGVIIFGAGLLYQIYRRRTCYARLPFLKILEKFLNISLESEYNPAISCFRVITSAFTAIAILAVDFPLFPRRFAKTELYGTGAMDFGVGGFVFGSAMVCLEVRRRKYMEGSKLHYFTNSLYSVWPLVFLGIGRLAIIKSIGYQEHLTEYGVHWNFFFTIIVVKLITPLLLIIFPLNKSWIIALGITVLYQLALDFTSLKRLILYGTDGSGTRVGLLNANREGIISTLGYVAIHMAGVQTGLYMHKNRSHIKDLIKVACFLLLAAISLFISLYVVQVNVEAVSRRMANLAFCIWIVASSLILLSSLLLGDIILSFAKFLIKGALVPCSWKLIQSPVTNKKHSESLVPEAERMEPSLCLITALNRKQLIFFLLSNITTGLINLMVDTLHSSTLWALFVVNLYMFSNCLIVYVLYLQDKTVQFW
Nature of the assay: Growth of S. cerevisiae strain whose GWT1 is replaced by the human gene PIG-W. The assay is classed as cell-based. The method, then: Sensitivity to gepinacin was determined in 96-well, flat bottom microtiter plates using a modification of the NCCLS broth microdilution protocol CLS M27-A3 and RPMI as culture medium. Fungi were inoculated at ˜10^3 cells per ml and incubated for 48 hours at 37° C. after which plates were sealed, shaken and the optical density read at 600 nm (OD600) on a Tecan Safire 2 plate reader. All samples were run in duplicate or triplicate and assays were repeated at least once. Results are expressed as fraction of growth in the absence of compound and the mean and standard deviation are plotted. For the mold A. terreus, inoculum was 10^4 cells per ml and plates were incubated at 35° C. for 48 hours in the dark. Plates were then visually scored as specified by CLSI document M38-A2 to determine the MIC50 and MIC80.
Because GWT1 deletion is lethal in S. cerevisiae strain BY4741, a haploid shuttle strain was constructed in which the genomic copy of GWT1 was deleted and replaced by GWT1 on a plasmid that also encoded the URA3 gene and a G418-resistance gene. […]
An S. cerevesiae strain was generated in which the endogenous Gwt1 gene was deleted. […] Shown in FIGS. 22A-D show the effect of the indicated compounds on growth (assessed by OD600) and viability (assessed using Bactiter Glo) of the yeast strain with high copy or low copy plasmid containing S. cerevesiae Gwt1. […]

The subject of assay [2] is fluconazole-resistant C. albicans strains CaCi2, 8 and 17. The assay can be described thus: Filamentation, liquid assay. The note with it: 5 μM. The assay is classed as cell-based. As for the experimental part: For liquid assays, C. albicans strains were grown overnight in YPD with DMSO or 5 μM gepinacin. After dilution to an OD600 of 0.1 in Spider media, growth was continued for an additional 3 hours with agitation at 37° C. in the presence of compound before transfer to a 24 well plate for imaging (Shen, et al. (2008) Proc Natl Acad Sci USA 105, 20918-20923). Assays with S. cerevisiae strain Sigma 1278B on solid media were performed as previously described (Liu, et al. (1994) Science 266, 1723-1726) except gepinacin was added directly to partially cooled plate media and colonies were imaged after growth for 6 or 9 days at 30° C.
Because of its role in tissue invasion, a key determinant of fungal virulence is the ability to switch between yeast and filamentous forms (Shapiro, et al. (2011) Microbiol Mol Biol Rev 75, 213-267; Sudbery, (2011) Nat Rev Microbiol 9, 737-748; Noble, et al. (2010) Nat Genet 42, 590-598). A previous report has shown that mature GPI-anchors are required for this process (Richard, et al. (2002) Microbiology 148, 2125-2133). […] In the absence of gepinacin, all three drug-resistant clinical isolates underwent marked transformation to large macroscopic mats, readily visible to the eye. […]

Take `COc1ccc(NC(=O)COc2cccc(OCC(C)C)c2)cc1` [gepinacin]: the “activity against PigW / in the PIG-W expressing strain” value in assay [1] is “inactive”. Also, the “filamentation in Spider medium” value in assay [2] is given as “completely blocked”.

The values above are taken from patent publication US9505735B2, “Compounds for treating infectious diseases” (Whitehead Institute for Biomedical Research, priority 2012, dated 2016).
